# Measurements reported in US9657147B2, “Method for preparing glycolide polyester by ring opening polymerization” (TEKNOLOGIAN TUTKIMUSKESKUS VTT OY, priority 2011, dated 2017).
# Assay: Test of solubility of the starting materials and homopolyglycolide in organic solvents
# From the text: A solvent which could be used in the ring opening polymerization should meet criteria: i) the solvent should be good enough to dissolve all starting materials including monomer (glycolide), co-monomer, initiator, catalyst and dispersion stabilizer, and ii) it should not dissolve resulting polymer (homopolyglycolide and co-polymers).
smiles,measurement,setting,value
O=C1COC(=O)CO1 [Glycolide],solution concentration permitted in acetonitrile,solvent acetonitrile,50 wt-%
same,solubility in Toluene,solvent toluene,bad
